Key:
[1] = target: T1, PXR(S208W/S247W/C284W) (Homo sapiens, UniProt O75469, C284W/S208W/S247W); experiment: LBP-filled PXR mutant CYP3A4 reporter assay; type: cell-based; settings: HepG2, 10 µM, 24 h
T1 construct: expressed in transfected cells; host or cells: HepG2
Experimental: (§1) For testing nuclear receptor selectivity and LBP-filled PXR mutant activation, transient batch transfection was conducted as above, but with HepG2 cells and the following plasmids, with amounts per well of 0.23–0.27 µg pGL4-CYP3A4(-7830Δ7208-364) or pGL3(DR3)3Tk (as reporter for VDR), 0.01 µg pMetLuc2control, and 0.03 µg either CAR1, CAR3, VDR, or PXR(S208W/S247W/C284W) expression plasmids. In addition, 0.03 µg RXRα expression plasmid was added to CAR3 transfections. Metridia luciferase activity was measured from 10 µL of medium supernatant after adding 100 µL Renilla luciferase assay solution.
Figure 5 PXR binding of phenylaminobenzosuberones is indicated by cellular PXR LBD assembly assay and inhibition of LBP-filled PXR mutant (A) Novel compounds induce PXR LBD assembly. […] (B) Effects of novel compounds on LBP-filled PXR mutant. HepG2 cells were transiently transfected with CYP3A4 reporter and expression plasmid encoding PXR(S208W/S247W/C284W) and treated as described above. […] Statistically significant differences are illustrated with asterisks. ** p ˂ 0.01, compared to respective treatments with DMSO analyzed by repeated measures one-way ANOVA with Dunnett’s multiple comparisons test.

[2] = target: T2, CAR3 (Homo sapiens, UniProt Q14994, DEL233-236); experiment: Nuclear receptor selectivity reporter assay, CAR3; type: cell-based; settings: for impairment of ligand-induced activation of CAR3 by CITCO: HepG2, 10 µM compound + 10 µM CITCO
T2 construct: expressed in transfected cells; host or cells: HepG2
T2 sequence (Q14994 with tags, fused parts or gaps isoform Q14994-8 DEL233-236): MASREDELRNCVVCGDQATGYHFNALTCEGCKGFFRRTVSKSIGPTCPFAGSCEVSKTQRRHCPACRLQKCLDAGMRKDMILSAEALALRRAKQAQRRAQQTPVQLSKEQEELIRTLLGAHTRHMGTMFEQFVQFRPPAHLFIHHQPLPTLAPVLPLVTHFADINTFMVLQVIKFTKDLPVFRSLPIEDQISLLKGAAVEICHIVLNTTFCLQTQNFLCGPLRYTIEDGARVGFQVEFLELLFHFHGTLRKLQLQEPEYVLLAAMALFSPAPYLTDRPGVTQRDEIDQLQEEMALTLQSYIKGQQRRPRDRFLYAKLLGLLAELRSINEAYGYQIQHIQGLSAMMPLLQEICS
T2 sequence (P19793 1-462 partner): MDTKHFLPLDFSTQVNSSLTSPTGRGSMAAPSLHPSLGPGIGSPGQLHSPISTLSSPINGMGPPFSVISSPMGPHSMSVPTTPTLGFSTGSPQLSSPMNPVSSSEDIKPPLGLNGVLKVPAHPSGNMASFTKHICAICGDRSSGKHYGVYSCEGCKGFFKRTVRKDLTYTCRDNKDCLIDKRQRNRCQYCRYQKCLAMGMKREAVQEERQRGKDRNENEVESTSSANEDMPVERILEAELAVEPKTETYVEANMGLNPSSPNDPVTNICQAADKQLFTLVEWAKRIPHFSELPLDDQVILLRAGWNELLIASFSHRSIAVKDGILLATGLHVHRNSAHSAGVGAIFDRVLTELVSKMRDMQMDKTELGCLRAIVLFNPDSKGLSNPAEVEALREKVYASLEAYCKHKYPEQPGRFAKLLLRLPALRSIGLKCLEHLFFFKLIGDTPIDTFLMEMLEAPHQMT
Experimental: as §1
Figure 6 Selectivity of novel PXR ligands within the NR1I group of nuclear receptors. HepG2 cells were transiently transfected with CYP3A4 reporter and expression plasmids encoding (A) CAR1 or (B) CAR3, or (C) direct repeat (DR3)3 reporter and expression plasmid encoding VDR. Cells were treated with 0.2% DMSO or 10 µM chemicals as indicated. 1α,25(OH)2D3 was used at 1 µM.

[3] = tested on: 335 wild-type protein kinases; experiment: Kinase inhibition profiling, selectivity score; type: biochemical
Experimental: (§2) The analysis was performed by ProQinase (Freiburg, Germany).

[4] = target: T3, SIK1 (Homo sapiens, UniProt P57059); experiment: Kinase profiling; type: biochemical
T3 construct: purchased ProQinase (Freiburg, Germany)
Experimental: as §2

[5] = target: T4, VRK2 (Homo sapiens, UniProt Q86Y07); experiment: Kinase profiling; type: biochemical
T4 construct: purchased ProQinase (Freiburg, Germany)
Experimental: as §2

[6] = target: T5, PXR (Homo sapiens, UniProt O75469); experiment: Competitive radioligand binding assay ([3H]SR12813); design: purchased Eurofins Cerep (contract assay service); settings: 7 concentrations 0.01-10 µM, duplicate; read-out: IC50, inhibition of binding of 3H-labeled SR12813 to PXR
T5 sequence (O75469 1-434): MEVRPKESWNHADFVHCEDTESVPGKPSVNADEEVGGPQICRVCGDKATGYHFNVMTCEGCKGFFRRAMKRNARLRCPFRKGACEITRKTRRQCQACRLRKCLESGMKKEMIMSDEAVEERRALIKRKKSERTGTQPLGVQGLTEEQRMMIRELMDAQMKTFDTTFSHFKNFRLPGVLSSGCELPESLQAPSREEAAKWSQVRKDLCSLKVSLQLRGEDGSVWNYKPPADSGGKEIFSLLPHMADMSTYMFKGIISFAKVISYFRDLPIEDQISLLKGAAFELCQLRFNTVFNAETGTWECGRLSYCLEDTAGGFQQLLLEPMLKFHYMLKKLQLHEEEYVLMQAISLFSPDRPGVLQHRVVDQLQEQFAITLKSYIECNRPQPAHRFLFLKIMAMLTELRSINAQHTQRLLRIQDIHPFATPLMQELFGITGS
Experimental: The assay was performed by Eurofins Cerep (Celle-Lévescault, France). […] Compound binding was calculated as % inhibition of the binding of the radioactively labeled PXR ligand [3H]SR12813 to recombinant human PXR, as described previously.

T3 sequence (P57059 whole entry): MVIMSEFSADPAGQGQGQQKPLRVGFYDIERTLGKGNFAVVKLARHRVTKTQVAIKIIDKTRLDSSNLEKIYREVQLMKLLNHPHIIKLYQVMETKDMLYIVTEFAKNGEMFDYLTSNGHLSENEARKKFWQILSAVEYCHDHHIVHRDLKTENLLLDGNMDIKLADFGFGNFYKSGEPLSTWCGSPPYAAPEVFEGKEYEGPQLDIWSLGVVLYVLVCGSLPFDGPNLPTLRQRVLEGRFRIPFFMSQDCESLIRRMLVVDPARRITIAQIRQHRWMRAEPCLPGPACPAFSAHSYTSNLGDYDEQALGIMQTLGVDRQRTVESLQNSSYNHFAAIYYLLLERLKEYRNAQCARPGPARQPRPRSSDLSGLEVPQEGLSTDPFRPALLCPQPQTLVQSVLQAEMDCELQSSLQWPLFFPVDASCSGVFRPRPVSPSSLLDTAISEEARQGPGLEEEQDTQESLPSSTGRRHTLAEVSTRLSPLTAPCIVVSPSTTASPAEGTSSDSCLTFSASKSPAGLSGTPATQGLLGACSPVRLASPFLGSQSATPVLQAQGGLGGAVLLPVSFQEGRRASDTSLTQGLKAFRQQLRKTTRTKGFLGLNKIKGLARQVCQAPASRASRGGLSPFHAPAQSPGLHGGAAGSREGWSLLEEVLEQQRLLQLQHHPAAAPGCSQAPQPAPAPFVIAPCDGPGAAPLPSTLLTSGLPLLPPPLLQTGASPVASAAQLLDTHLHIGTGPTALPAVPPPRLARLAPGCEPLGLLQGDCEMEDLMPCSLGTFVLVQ
T4 sequence (Q86Y07 whole entry): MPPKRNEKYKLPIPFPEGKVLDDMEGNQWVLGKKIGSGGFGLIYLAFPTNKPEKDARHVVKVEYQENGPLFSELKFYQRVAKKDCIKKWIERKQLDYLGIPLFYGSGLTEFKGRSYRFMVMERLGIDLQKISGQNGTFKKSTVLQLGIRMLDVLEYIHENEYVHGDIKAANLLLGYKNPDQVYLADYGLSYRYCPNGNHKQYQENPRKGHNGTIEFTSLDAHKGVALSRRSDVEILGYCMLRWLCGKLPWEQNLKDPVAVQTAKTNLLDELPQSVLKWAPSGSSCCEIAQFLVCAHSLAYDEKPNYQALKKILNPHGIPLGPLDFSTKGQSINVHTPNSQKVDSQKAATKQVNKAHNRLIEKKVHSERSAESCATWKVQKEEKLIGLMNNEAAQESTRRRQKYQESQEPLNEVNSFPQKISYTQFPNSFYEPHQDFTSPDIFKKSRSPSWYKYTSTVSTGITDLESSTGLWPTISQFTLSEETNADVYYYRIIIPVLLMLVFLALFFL
T1 sequence (O75469 whole entry S208W/S247W/C284W): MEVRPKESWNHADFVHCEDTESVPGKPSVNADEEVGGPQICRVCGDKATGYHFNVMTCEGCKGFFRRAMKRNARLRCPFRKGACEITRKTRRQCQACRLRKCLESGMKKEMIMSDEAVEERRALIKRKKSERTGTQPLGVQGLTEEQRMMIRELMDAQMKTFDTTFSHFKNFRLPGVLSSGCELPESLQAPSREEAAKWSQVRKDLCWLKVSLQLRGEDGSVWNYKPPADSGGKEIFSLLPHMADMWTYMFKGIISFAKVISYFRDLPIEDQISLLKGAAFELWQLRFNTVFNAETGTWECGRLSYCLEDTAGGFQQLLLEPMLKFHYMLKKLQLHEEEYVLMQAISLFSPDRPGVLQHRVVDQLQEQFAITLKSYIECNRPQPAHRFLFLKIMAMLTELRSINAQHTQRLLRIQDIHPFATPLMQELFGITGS

Structure (SMILES)	suppression of constitutive activity of LBP-filled PXR mutant [1]	activation of CAR3 on their own ([2]; HepG2, 10 µM)	impairment of ligand-induced activation of CAR3 by CITCO [2]	Selectivity Score (< 50 % residual activity) ([3]; 1.0E-05 M)	Selectivity Score (< 50 % residual activity) ([3]; 1.0E-06 M)	Residual activity ([4]; 1.0E-05 M)	Residual activity ([4]; 1.0E-06 M)	Residual activity ([5]; 1.0E-05 M)	Residual activity ([5]; 1.0E-06 M)	IC50 [6] [µM]	activation of CAR3, % of the effect of CITCO ([2]; HepG2, 10 µM) [%]
O=C(Cc1ccccc1)Nc1ccc(F)c(Nc2ccc3c(c2)CCCCC3=O)c1 [Compound 100]	did not affect constitutive activity of the PXR mutant	Neither CAR3 nor VDR were activated	no respective effects	0.015	0.003	86 % of control	84 % of control	114 % of control	113 % of control	4.5	–
Cc1ccc(NC(=O)Cc2ccccc2)cc1Nc1ccc2c(c1)CCCCC2=O [Compound 73]	40%	Neither CAR3 nor VDR were activated	46%	–	–	–	–	–	–	–	–
O=C(Nc1ccc(F)c(Nc2ccc3c(c2)CCCCC3=O)c1)c1cccc(F)c1 [Compound 109]	–	–	–	0.024	0.012	83 % of control	89 % of control	108 % of control	107 % of control	2.9	12

From article PMC9030254, “Target Hopping from Protein Kinases to PXR: Identification of Small-Molecule Protein Kinase Inhibitors as Selective Modulators of Pregnane X Receptor from TüKIC Library” (Cells, 2022)
